# Test results reported in PubChem BioAssay (NCI).
#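 48-hour exposure; five concentrations; linearly interpolated endpoints. Here, GI50 denotes the concentration required for 50% inhibition of growth. TGI: concentration producing complete growth inhibition.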
# Tested on: SF-295 CNS
# Assay: NCI anticancer screen, dose series, 48 h
Structure (SMILES),GI50 [µM],TGI [µM]
Nc1nc(N)c2nc(CNc3ccc(C(=O)NC(CC(=O)O)C(=O)O)cc3)cnc2n1 (stereo not given),0.508,> 34.6
O=C1c2cccc(NCCN=Cc3cc([N+](=O)[O-])ccc3O)c2C(=O)c2c(NCCN=Cc3cc([N+](=O)[O-])ccc3O)cccc21,2.08,52.1
CC(=O)OC[C@]12CC[C@@H](C(=O)CBr)[C@@H]1[C@H]1CC[C@@H]3[C@@]4(C)CCCNC(C)(C)[C@@H]4CC[C@@]3(C)[C@]1(C)CC2,14.6,28.2
COc1cc2c3c(n(CCCCN)c(=O)c2cc1OC)-c1cc2c(cc1C3=O)OCO2,0.274,2.81
C=CCC1(O)c2ccccc2C(=O)c2c(NCCN(CC(=O)OCC)CC(=O)OCC)cccc21 (stereo not given),> 100,> 100
COc1cccc(-n2nc(C)c3c(N/N=C(\C)c4ccncc4)ncnc32)c1,> 25,> 25
Cc1ccc(-c2nc(C#N)c(S(=O)(=O)n3nc(C)cc3N)o2)cc1,15.8,30.5
CCn1cnc(C[C@H](NC(=O)[C@@H](NC(=O)Nc2cc(C(F)(F)F)cc(C(F)(F)F)c2)C(C)C)C(=O)OC)c1,> 10,> 10
O=C(Nc1cccc(-n2cc(-c3ccncc3)c(-c3ccc(Cl)c(O)c3)n2)c1)c1ccc(N2CCOCC2)c(C(F)(F)F)c1,1.71,7.55
COc1ccc2c(=O)cc(-c3ccncc3)oc2c1OC,,> 100
O=C(Nc1ccncc1)C(=O)c1cn(Cc2ccc(Cl)cc2)c2ccccc12,0.0217,0.0803
CC(=O)C(=Cc1ccc(C=C(C(C)=O)C(C)=O)cc1)C(C)=O,,7.97
O=C(O)c1cc2ccc3ccccc3c2oc1=O,,> 100
O=[N+]([O-])c1ccc2c(c1)Cc1cc(N=Cc3ccc4c(c3)OCO4)ccc1-2,,> 100
COC(=O)[C@@]12OC[C@]34[C@H]([C@@H](O)[C@@H]1O)[C@@]1(C)[C@H](O)C(=O)C=C(C)[C@@H]1C[C@H]3OC(=O)C(OC(C)=O)[C@@H]24 (stereo not given in full),0.0241,0.0847

# Tested on: SN12C renal
# Assay: NCI anticancer screen, dose series, 48 h
Structure (SMILES),GI50 [µM],TGI [µM]
Nc1nc(N)c2nc(CNc3ccc(C(=O)NC(CC(=O)O)C(=O)O)cc3)cnc2n1 (stereo not given),0.922,> 100
O=C1c2cccc(NCCN=Cc3cc([N+](=O)[O-])ccc3O)c2C(=O)c2c(NCCN=Cc3cc([N+](=O)[O-])ccc3O)cccc21,2.45,> 100
CC(=O)OC[C@]12CC[C@@H](C(=O)CBr)[C@@H]1[C@H]1CC[C@@H]3[C@@]4(C)CCCNC(C)(C)[C@@H]4CC[C@@]3(C)[C@]1(C)CC2,2.28,5.25
COc1cc2c3c(n(CCCCN)c(=O)c2cc1OC)-c1cc2c(cc1C3=O)OCO2,0.0583,0.235
C=CCC1(O)c2ccccc2C(=O)c2c(NCCN(CC(=O)OCC)CC(=O)OCC)cccc21 (stereo not given),57,> 100
COc1cccc(-n2nc(C)c3c(N/N=C(\C)c4ccncc4)ncnc32)c1,> 25,> 25
Cc1ccc(-c2nc(C#N)c(S(=O)(=O)n3nc(C)cc3N)o2)cc1,3.65,13.9
CCn1cnc(C[C@H](NC(=O)[C@@H](NC(=O)Nc2cc(C(F)(F)F)cc(C(F)(F)F)c2)C(C)C)C(=O)OC)c1,1.73,3.57
O=C(Nc1cccc(-n2cc(-c3ccncc3)c(-c3ccc(Cl)c(O)c3)n2)c1)c1ccc(N2CCOCC2)c(C(F)(F)F)c1,22,> 50
COc1ccc2c(=O)cc(-c3ccncc3)oc2c1OC,,> 100
O=C(Nc1ccncc1)C(=O)c1cn(Cc2ccc(Cl)cc2)c2ccccc12,0.0725,> 100
CC(=O)C(=Cc1ccc(C=C(C(C)=O)C(C)=O)cc1)C(C)=O,,3.07
O=C(O)c1cc2ccc3ccccc3c2oc1=O,,> 100
O=[N+]([O-])c1ccc2c(c1)Cc1cc(N=Cc3ccc4c(c3)OCO4)ccc1-2,,> 100
COC(=O)[C@@]12OC[C@]34[C@H]([C@@H](O)[C@@H]1O)[C@@]1(C)[C@H](O)C(=O)C=C(C)[C@@H]1C[C@H]3OC(=O)C(OC(C)=O)[C@@H]24 (stereo not given in full),0.046,0.307

# Tested on: TK-10 renal
# Assay: NCI anticancer screen, dose series, 48 h
Structure (SMILES),GI50 [µM],TGI [µM]
Nc1nc(N)c2nc(CNc3ccc(C(=O)NC(CC(=O)O)C(=O)O)cc3)cnc2n1 (stereo not given),1.71,> 100
O=C1c2cccc(NCCN=Cc3cc([N+](=O)[O-])ccc3O)c2C(=O)c2c(NCCN=Cc3cc([N+](=O)[O-])ccc3O)cccc21,28.5,> 100
CC(=O)OC[C@]12CC[C@@H](C(=O)CBr)[C@@H]1[C@H]1CC[C@@H]3[C@@]4(C)CCCNC(C)(C)[C@@H]4CC[C@@]3(C)[C@]1(C)CC2,2.93,11.6
COc1cc2c3c(n(CCCCN)c(=O)c2cc1OC)-c1cc2c(cc1C3=O)OCO2,3.84,8.48
C=CCC1(O)c2ccccc2C(=O)c2c(NCCN(CC(=O)OCC)CC(=O)OCC)cccc21 (stereo not given),> 100,> 100
COc1cccc(-n2nc(C)c3c(N/N=C(\C)c4ccncc4)ncnc32)c1,10.2,> 25
Cc1ccc(-c2nc(C#N)c(S(=O)(=O)n3nc(C)cc3N)o2)cc1,1.97,3.6
CCn1cnc(C[C@H](NC(=O)[C@@H](NC(=O)Nc2cc(C(F)(F)F)cc(C(F)(F)F)c2)C(C)C)C(=O)OC)c1,1.88,3.89
O=C(Nc1cccc(-n2cc(-c3ccncc3)c(-c3ccc(Cl)c(O)c3)n2)c1)c1ccc(N2CCOCC2)c(C(F)(F)F)c1,21.3,> 50
COc1ccc2c(=O)cc(-c3ccncc3)oc2c1OC,,> 100
O=C(Nc1ccncc1)C(=O)c1cn(Cc2ccc(Cl)cc2)c2ccccc12,0.457,> 100
CC(=O)C(=Cc1ccc(C=C(C(C)=O)C(C)=O)cc1)C(C)=O,,5.31
O=C(O)c1cc2ccc3ccccc3c2oc1=O,,> 100
O=[N+]([O-])c1ccc2c(c1)Cc1cc(N=Cc3ccc4c(c3)OCO4)ccc1-2,,> 100
COC(=O)[C@@]12OC[C@]34[C@H]([C@@H](O)[C@@H]1O)[C@@]1(C)[C@H](O)C(=O)C=C(C)[C@@H]1C[C@H]3OC(=O)C(OC(C)=O)[C@@H]24 (stereo not given in full),0.0374,0.197

# Tested on: U251 CNS
# Assay: NCI anticancer screen, dose series, 48 h
Structure (SMILES),GI50 [µM],TGI [µM]
Nc1nc(N)c2nc(CNc3ccc(C(=O)NC(CC(=O)O)C(=O)O)cc3)cnc2n1 (stereo not given),1.97,> 100
O=C1c2cccc(NCCN=Cc3cc([N+](=O)[O-])ccc3O)c2C(=O)c2c(NCCN=Cc3cc([N+](=O)[O-])ccc3O)cccc21,2.65,19.7
CC(=O)OC[C@]12CC[C@@H](C(=O)CBr)[C@@H]1[C@H]1CC[C@@H]3[C@@]4(C)CCCNC(C)(C)[C@@H]4CC[C@@]3(C)[C@]1(C)CC2,12.7,25.4
COc1cc2c3c(n(CCCCN)c(=O)c2cc1OC)-c1cc2c(cc1C3=O)OCO2,0.407,2.86
C=CCC1(O)c2ccccc2C(=O)c2c(NCCN(CC(=O)OCC)CC(=O)OCC)cccc21 (stereo not given),> 100,> 100
COc1cccc(-n2nc(C)c3c(N/N=C(\C)c4ccncc4)ncnc32)c1,> 22.2,> 25
Cc1ccc(-c2nc(C#N)c(S(=O)(=O)n3nc(C)cc3N)o2)cc1,13.6,26.5
CCn1cnc(C[C@H](NC(=O)[C@@H](NC(=O)Nc2cc(C(F)(F)F)cc(C(F)(F)F)c2)C(C)C)C(=O)OC)c1,1.98,3.96
O=C(Nc1cccc(-n2cc(-c3ccncc3)c(-c3ccc(Cl)c(O)c3)n2)c1)c1ccc(N2CCOCC2)c(C(F)(F)F)c1,1.85,24.9
COc1ccc2c(=O)cc(-c3ccncc3)oc2c1OC,,> 100
O=C(Nc1ccncc1)C(=O)c1cn(Cc2ccc(Cl)cc2)c2ccccc12,0.0472,> 100
CC(=O)C(=Cc1ccc(C=C(C(C)=O)C(C)=O)cc1)C(C)=O,,4.24
O=C(O)c1cc2ccc3ccccc3c2oc1=O,,> 100
O=[N+]([O-])c1ccc2c(c1)Cc1cc(N=Cc3ccc4c(c3)OCO4)ccc1-2,,> 100
COC(=O)[C@@]12OC[C@]34[C@H]([C@@H](O)[C@@H]1O)[C@@]1(C)[C@H](O)C(=O)C=C(C)[C@@H]1C[C@H]3OC(=O)C(OC(C)=O)[C@@H]24 (stereo not given in full),0.0207,0.0443

# Tested on: UO-31 renal
# Assay: NCI anticancer screen, dose series, 48 h
Structure (SMILES),GI50 [µM],TGI [µM]
Nc1nc(N)c2nc(CNc3ccc(C(=O)NC(CC(=O)O)C(=O)O)cc3)cnc2n1 (stereo not given),1.18,> 35.9
O=C1c2cccc(NCCN=Cc3cc([N+](=O)[O-])ccc3O)c2C(=O)c2c(NCCN=Cc3cc([N+](=O)[O-])ccc3O)cccc21,8.34,> 100
CC(=O)OC[C@]12CC[C@@H](C(=O)CBr)[C@@H]1[C@H]1CC[C@@H]3[C@@]4(C)CCCNC(C)(C)[C@@H]4CC[C@@]3(C)[C@]1(C)CC2,1.71,4.04
COc1cc2c3c(n(CCCCN)c(=O)c2cc1OC)-c1cc2c(cc1C3=O)OCO2,2.97,12
C=CCC1(O)c2ccccc2C(=O)c2c(NCCN(CC(=O)OCC)CC(=O)OCC)cccc21 (stereo not given),> 100,> 100
COc1cccc(-n2nc(C)c3c(N/N=C(\C)c4ccncc4)ncnc32)c1,13.8,> 25
Cc1ccc(-c2nc(C#N)c(S(=O)(=O)n3nc(C)cc3N)o2)cc1,1.74,3.33
CCn1cnc(C[C@H](NC(=O)[C@@H](NC(=O)Nc2cc(C(F)(F)F)cc(C(F)(F)F)c2)C(C)C)C(=O)OC)c1,> 10,> 10
O=C(Nc1cccc(-n2cc(-c3ccncc3)c(-c3ccc(Cl)c(O)c3)n2)c1)c1ccc(N2CCOCC2)c(C(F)(F)F)c1,2.6,34.3
COc1ccc2c(=O)cc(-c3ccncc3)oc2c1OC,,67.6
O=C(Nc1ccncc1)C(=O)c1cn(Cc2ccc(Cl)cc2)c2ccccc12,0.0788,> 100
CC(=O)C(=Cc1ccc(C=C(C(C)=O)C(C)=O)cc1)C(C)=O,,3.1
O=C(O)c1cc2ccc3ccccc3c2oc1=O,,> 100
O=[N+]([O-])c1ccc2c(c1)Cc1cc(N=Cc3ccc4c(c3)OCO4)ccc1-2,,> 100
COC(=O)[C@@]12OC[C@]34[C@H]([C@@H](O)[C@@H]1O)[C@@]1(C)[C@H](O)C(=O)C=C(C)[C@@H]1C[C@H]3OC(=O)C(OC(C)=O)[C@@H]24 (stereo not given in full),0.113,0.449
